Source: PubChem BioAssay AID296 (DTP/NCI, 2004)
Where “and” joins values, the source holds several entries; their conditions need not be identical. Equal entries are not always repeated. Results filed as inconclusive are left out.

System: MX-1 breast xenograft, nude mice, tumor weight T/C
Assay: NCI In Vivo Anticancer Drug Screen. Data for tumor model Human Mammary Carcinoma MX-1 Xenograft (intrarenal inoculation) in NU/NU Swiss (nude) mice
Details: endpoint: mean tumor weight change, higher = larger tumour
Experimental: The antitumor activity of compounds was measured in mice bearing transplantable tumors. Survival or tumor size were measured and the results are expressed as the measurement made in the treated group (T) divided by the measurement made in the vehicle treated control group (C). The tumor model used in this assay is Human Mammary Carcinoma MX-1 Xenograft (intrarenal inoculation) in NU/NU Swiss (nude) mice

[1] = dose: 300.0 mg/kg/injection, schedule: Q04DX003 (sc), vehicle: Klucel (hydroxypropylcellulose) (HPC)
[2] = dose: 600.0 mg/kg/injection, schedule: Q04DX003 (sc), vehicle: Klucel (hydroxypropylcellulose) (HPC)
[3] = dose: 1200.0 mg/kg/injection, schedule: Q04DX003 (sc), vehicle: Klucel (hydroxypropylcellulose) (HPC)
[4] = dose: 300.0 mg/kg/injection, schedule: Q04DX003 (sc), vehicle: saline with Tween-80
[5] = dose: 600.0 mg/kg/injection, schedule: Q04DX003 (sc), vehicle: saline with Tween-80
[6] = dose: 1200.0 mg/kg/injection, schedule: Q04DX003 (sc), vehicle: saline with Tween-80
[7] = dose: 2400.0 mg/kg/injection, schedule: Q04DX003 (sc), vehicle: saline with Tween-80
[8] = dose: 150.0 mg/kg/injection, schedule: Q04DX003 (sc), vehicle: saline with Tween-80

## CCCCC(=O)OCC(=O)[C@]1(O)Cc2c(O)c3c(c(O)c2[C@@H](OC2CC(NC(=O)C(F)(F)F)C(O)C(C)O2)C1)C(=O)c1c(OC)cccc1C3=O (some centres not stated)
dose: 64.0 mg/kg/injection, schedule: Q01DX010 (sc), vehicle: distilled water + Tween-80
  T/C: 91 % of control
dose: 128.0 mg/kg/injection, schedule: Q01DX010 (sc), vehicle: distilled water + Tween-80
  T/C: 56 % of control
dose: 256.0 mg/kg/injection, schedule: Q01DX010 (sc), vehicle: distilled water + Tween-80
  T/C: 34 % of control

## NC1(C(=O)O)CCCC1
dose: 12.5 mg/kg/injection, schedule: Q01DX010 (sc), vehicle: saline
  T/C: 103 % of control
dose: 50.0 mg/kg/injection, schedule: Q01DX010 (sc), vehicle: saline
  T/C: 25 % of control and 41 % of control
dose: 100.0 mg/kg/injection, schedule: Q01DX010 (sc), vehicle: saline
  T/C: 7 % of control and 8 % of control

## C[C@]12CC[C@@H]3c4ccc(O)cc4CC[C@H]3[C@@H]1CC[C@@H]2O
dose: 150.0 mg/kg/injection, schedule: Q04DX003 (sc), vehicle: Klucel (hydroxypropylcellulose) (HPC)
  T/C: 101 % of control
[1]
  T/C: 101 % of control
[2]
  T/C: 101 % of control
[3]
  T/C: 104 % of control

## C[n+]1c(/C=C\C=C\N2CCCCC2)sc2ccccc21
dose: 0.75 mg/kg/injection, schedule: Q04DX003 (sc), vehicle: Klucel (hydroxypropylcellulose) (HPC)
  T/C: 84 % of control
dose: 1.5 mg/kg/injection, schedule: Q04DX003 (sc), vehicle: Klucel (hydroxypropylcellulose) (HPC)
  T/C: 93 % of control

## Cc1ccc(NN=O)nc1
dose: 18.7 mg/kg/injection, schedule: Q04DX003 (ip), vehicle: water
  T/C: 16 % of control
dose: 37.5 mg/kg/injection, schedule: Q04DX003 (ip), vehicle: water
  T/C: 8 % of control

## C/C(=N/NC(N)=S)c1ccc2ccccc2c1
dose: 25.0 mg/kg/injection, schedule: Q01DX010 (sc), vehicle: saline with Tween-80
  T/C: 75 % of control
dose: 50.0 mg/kg/injection, schedule: Q01DX010 (sc), vehicle: saline with Tween-80
  T/C: 81 % of control
dose: 100.0 mg/kg/injection, schedule: Q01DX010 (sc), vehicle: saline with Tween-80
  T/C: 29 % of control

## CCc1c(CC(=O)O)c2cc(C)ccc2n1Cc1ccc(Cl)cc1
[1]
  T/C: 71 % of control
[2]
  T/C: 86 % of control
[3]
  T/C: 51 % of control
dose: 2400.0 mg/kg/injection, schedule: Q04DX003 (sc), vehicle: Klucel (hydroxypropylcellulose) (HPC)
  T/C: 49 % of control

## CN(CCN(C)C(=O)CCOS(C)(=O)=O)C(=O)CCOS(C)(=O)=O
dose: 50.0 mg/kg/injection, schedule: Q04DX003 (sc), vehicle: saline with Tween-80
  T/C: 41 % of control
dose: 50.0 mg/kg/injection, schedule: Q04DX003 (sc), vehicle: suspension in saline
  T/C: 16 % of control
dose: 100.0 mg/kg/injection, schedule: Q04DX003 (sc), vehicle: saline with Tween-80
  T/C: 1 % of control
dose: 100.0 mg/kg/injection, schedule: Q04DX003 (sc), vehicle: suspension in saline
  T/C: -86 % of control
dose: 200.0 mg/kg/injection, schedule: Q04DX003 (sc), vehicle: saline with Tween-80
  T/C: -65 % of control
dose: 200.0 mg/kg/injection, schedule: Q04DX003 (sc), vehicle: suspension in saline
  T/C: -100 % of control
dose: 400.0 mg/kg/injection, schedule: Q04DX003 (sc), vehicle: suspension in saline
  T/C: -100 % of control

## CC(=O)OCC1OC([S-])C(OC(C)=O)C(OC(C)=O)C1OC(C)=O.CC[PH+](CC)CC.CC[PH+](CC)CC.[Au].[Au] (configuration not stated)
dose: 0.32 mg/kg/injection, schedule: Q04DX003 (sc), vehicle: Klucel (hydroxypropylcellulose) (HPC)
  T/C: 88 % of control
dose: 0.63 mg/kg/injection, schedule: Q04DX003 (sc), vehicle: Klucel (hydroxypropylcellulose) (HPC)
  T/C: 112 % of control
dose: 1.25 mg/kg/injection, schedule: Q04DX003 (sc), vehicle: Klucel (hydroxypropylcellulose) (HPC)
  T/C: 100 % of control
dose: 2.5 mg/kg/injection, schedule: Q04DX003 (sc), vehicle: Klucel (hydroxypropylcellulose) (HPC)
  T/C: 87 % of control

## CC(Oc1ccccc1-c1ccccc1)C(=O)N(C)C (configuration not stated)
[4]
  T/C: 82 % of control
[5]
  T/C: 102 % of control
[6]
  T/C: 114 % of control
[7]
  T/C: 60 % of control

## CC(=O)CC(C)=O.CC(=O)CC(C)=O.O=N[O-].O=N[O-].[Co]
dose: 75.0 mg/kg/injection, schedule: Q04DX003 (sc), vehicle: saline with Tween-80
  T/C: 72 % of control
[8]
  T/C: 67 % of control

## CCC1=C[C@H]2CN(CCc3c([nH]c4ccccc34)[C@@](C(=O)OC)(c3cc4c(cc3OC)N(C)[C@H]3[C@@](O)(C(=O)NC)[C@H](OC(C)=O)[C@]5(CC)C=CCN6CC[C@]43[C@@H]65)C2)C1
dose: 1.0 mg/kg/injection, schedule: Q04DX003 (sc), vehicle: water
  T/C: 48 % of control
dose: 2.0 mg/kg/injection, schedule: Q04DX003 (sc), vehicle: water
  T/C: 45 % of control

## C=C1C(=O)C2=CC1CCC(=O)C1(C)CCC(OC(C)=O)C(C)(C)C1CC2O (configuration not stated)
dose: 30.0 mg/kg/injection, schedule: Q04DX003 (sc), vehicle: Klucel (hydroxypropylcellulose) (HPC)
  T/C: 107 % of control
dose: 60.0 mg/kg/injection, schedule: Q04DX003 (sc), vehicle: Klucel (hydroxypropylcellulose) (HPC)
  T/C: 69 % of control
dose: 120.0 mg/kg/injection, schedule: Q04DX003 (sc), vehicle: Klucel (hydroxypropylcellulose) (HPC)
  T/C: 42 % of control

## COc1cc(NCCCCCCCNC(C)C)c2nccc(C)c2c1
dose: 37.5 mg/kg/injection, schedule: Q04DX003 (sc), vehicle: saline
  T/C: 93 % of control
dose: 75.0 mg/kg/injection, schedule: Q04DX003 (sc), vehicle: saline
  T/C: 76 % of control
dose: 150.0 mg/kg/injection, schedule: Q04DX003 (sc), vehicle: saline
  T/C: 66 % of control

## CNc1nc2c(N)ncnc2n1C1OC(CO)C(O)C1O (configuration not stated)
dose: 12.5 mg/kg/injection, schedule: Q04DX003 (sc), vehicle: saline
  T/C: 111 % of control
dose: 25.0 mg/kg/injection, schedule: Q04DX003 (sc), vehicle: saline
  T/C: 92 % of control
dose: 50.0 mg/kg/injection, schedule: Q04DX003 (sc), vehicle: saline
  T/C: 60 % of control

## CN(C)CCOc1ccc2c(c1)C/C(=C/c1ncc([N+](=O)[O-])n1C)C2=O
[4]
  T/C: 81 % of control
[5]
  T/C: 68 % of control
[6]
  T/C: 89 % of control
[7]
  T/C: 70 % of control

## CC[C@H]1CN2CCc3cc(OC)c(OC)cc3[C@@H]2C[C@@H]1C[C@H]1NCCc2cc(OC)c(OC)cc21
dose: 2.0 mg/kg/injection, schedule: Q01DX010 (sc), vehicle: saline
  T/C: 114 % of control
dose: 4.0 mg/kg/injection, schedule: Q01DX010 (sc), vehicle: saline
  T/C: 108 % of control

## CCCCn1cnc2c(=S)nc[nH]c21
dose: 300.0 mg/kg/injection, schedule: Q04DX003 (sc), vehicle: suspension in saline
  T/C: 119 % of control
dose: 600.0 mg/kg/injection, schedule: Q04DX003 (sc), vehicle: suspension in saline
  T/C: 81 % of control
dose: 1024.0 mg/kg/injection, schedule: Q04DX003 (sc), vehicle: suspension in saline
  T/C: 67 % of control
dose: 1200.0 mg/kg/injection, schedule: Q04DX003 (sc), vehicle: suspension in saline
  T/C: 16 % of control
dose: 1600.0 mg/kg/injection, schedule: Q04DX003 (sc), vehicle: suspension in saline
  T/C: 49 % of control
dose: 2000.0 mg/kg/injection, schedule: Q04DX003 (sc), vehicle: suspension in saline
  T/C: 4 % of control

## CC1(C)OCC(CO)(Nc2nc(N3CC3)nc(N3CC3)n2)CO1
dose: 2.5 mg/kg/injection, schedule: Q01DX010 (sc), vehicle: saline
  T/C: -75 % of control

## C=C1c2cccc(O)c2C(O)=C2C(=O)[C@]3(O)C(O)=C(C(N)=O)C(=O)[C@@H](N(C)C)[C@@H]3[C@@H](O)[C@H]12
dose: 75.0 mg/kg/injection, schedule: Q04DX003 (ip), vehicle: Klucel (hydroxypropylcellulose) (HPC)
  T/C: 89 % of control
dose: 150.0 mg/kg/injection, schedule: Q04DX003 (ip), vehicle: Klucel (hydroxypropylcellulose) (HPC)
  T/C: 74 % of control
dose: 300.0 mg/kg/injection, schedule: Q04DX003 (ip), vehicle: Klucel (hydroxypropylcellulose) (HPC)
  T/C: 58 % of control

## c1ccc2sc(SSN3CC4CCC(CC4)C3)nc2c1
dose: 200.0 mg/kg/injection, schedule: Q01DX010 (sc), vehicle: saline with Tween-80
  T/C: 156 % of control
dose: 400.0 mg/kg/injection, schedule: Q01DX010 (sc), vehicle: saline with Tween-80
  T/C: 95 % of control

## O=Cc1c(O)c2ccccc2[nH]c1=O
[8]
  T/C: 118 % of control
[4]
  T/C: 99 % of control
[5]
  T/C: 86 % of control

## COC(=O)C[C@](O)(CCCC(C)(C)O)C(=O)O[C@@H]1C(OC)=C[C@]23CCCN2CCc2cc4c(cc2[C@H]13)OCO4
dose: 0.5 mg/kg/injection, schedule: Q01DX010 (sc), vehicle: saline
  T/C: 177 % of control
dose: 1.0 mg/kg/injection, schedule: Q01DX010 (sc), vehicle: saline
  T/C: 110 % of control
